Test results reported in publication PMC9227536, “Prediction of Pharmacokinetics of IDP-73152 in Humans Using Physiologically-Based Pharmacokinetics” (Pharmaceutics, 2022).
Read-outs that look alike come from different tables or passages of the source.

Columns and labels:
[1] = Metabolic stability in liver microsomes, dog; assay type: in vitro ADME
Description: In this study, the metabolic stability of IDP-73152 in microsomes from mice, rats, dogs, and humans, as well as rat hepatocytes, was determined. For a microsomal incubation study, the incubation mixtures, containing mouse, rat, dog, or human liver microsomes at a protein concentration of 0.5 mg/mL, 3.3 mM MgCl2, and 1.3 mM NADPH, in a 100 mM potassium phosphate buffer (pH 7.4), were preincubated for 3 min at 37 °C. In parallel, a control incubation mixture (i.e., identical composition to that of the incubation mixture without NADPH) was also prepared for comparison. The reaction was initiated by the addition of a 10 × solution of IDP-73152 (final concentration in mixtures of 1 μM) to the incubation mixtures or the control incubation mixtures. The mixtures were incubated in a shaking water bath (37 °C, 90 rpm). Aliquots (30 μL) were collected at 0, 15, 30, and 45 min from the mixture and the reaction was terminated by the addition of a 4-fold volume of ice-cold acetonitrile to the sample. The mixture was then vortexed for 5 min and centrifuged for 10 min at 10,000× g. The supernatant was collected and stored at -80 °C until the analysis. For the hepatocyte incubation study, rat hepatocytes were freshly prepared using the two-step collagenase perfusion method with slight modifications. After the isolation, cell viability during the preparation process was first determined by a trypan blue exclusion assay prior to the stability study. The preparation was considered adequate for subsequent studies if the viability was greater than 80%. When appropriate, the hepatocytes were resuspended in Williams' media E containing 10% fetal bovine serum, 1% penicillin-streptomycin, and 0.01% insulin-transferrin-selenium (i.e., 10 mg/mL insulin, 5.5 mg/mL transferrin, and 5 mg/mL selenium) at pH 7.4. The reaction was carried out with the hepatocyte suspension prepared at 1 × 10^6 cells/mL (0.5 mL) and initiated by the addition of equal volume of IDP-73152 solution (i.e., final concentration of the compound at 1 μM in 0.5 × 10^6 cells/mL of hepatocytes) to the hepatocyte suspension. […] Assuming first-order disappearance kinetics, the slope k of the logarithmically transformed IDP-73152 concentration in the sample versus time plot was determined by the linear regression analysis of the data. The total intrinsic clearance (CLint,mic, μL/min/mg protein for microsomal incubation study and CLint,hep, μL/min/million cells for hepatocytes incubation study) was then calculated using the following equations:(4) CLint, mic=k×Volume of incubation medium (μL)/Protein in incubation medium (mg) (5) CLint,hep=k×Volume of incubation (μL)/Number of cells in incubation (×10^6) The unbound intrinsic clearance, with respect to the whole liver ([…]), was then estimated for the two cases. […]

[2] = PK study in dogs (intravenous and oral); assay type: in vivo
Description: The in vivo experimental protocol was approved by the Institutional Animal Care and Use Committee of Research Laboratory at Ildong pharmaceutical Co., Ltd. (Ref. No.: IDL-PDF-001 and 09005-11004). Animals were acclimatized to the laboratory conditions for at least 1 week before the experiments and were kept in the standardized conditions (20–25 °C, 55 ± 5% humidity, and a 12 h light/dark cycle). The animals fasted overnight prior to drug administration, and food was resupplied 4 h post-dose.
Male beagle dogs (body weight 9.55–10.3 kg, Beijing Marshall Biotechnology, Beijing, China) received a single intravenous dose of 10 mg/kg IDP-73152 via the cephalic vein (i.e., the injection volume of 1 mL/kg, IDP-73152 in saline). When necessary, a single dose of IDP-73152 at 20 mg/kg was also orally administered to dogs in the form of hard gelatin capsules. Blood samples were collected from the jugular vein at 0.167, 0.33, 0.5, 1, 2, 4, and 8 h (for intravenous administration study), and 0.167, 0.33, 0.5, 1, 2, 4, 6, and 8 h (for oral administration study) after the administration. Plasma was separated/collected from the blood sample by centrifugation for 5 min at 10,000× g/4 °C and stored at −80 °C until the analysis.
When necessary for a model independent PK analysis, a standard moment analysis was carried out with WinNonlin software using either representative (for the study with mice) or individual (for the study with rats, dogs, and humans) concentration–time profile(s). For the calculation of PBPK models, Berkeley Madonna 8.3.18 (Albany, CA, USA) was used with the fourth-order Runge–Kutta method for numerical integration.

[3] = male, beagle, dog, plasma, dogs, oral 20 mg/kg, hard gelatin capsules

CC(C)(C)[C@H](NC(=O)[C@H](CC1CCCC1)CN(O)C=O)C(=O)N1CCC(NCc2cc(F)c(F)cc2F)CC1 [IDP-73152]
CLhep predicted at 1 μM ([1]; dog, liver microsomes, pH 7.4, dogs, read-out: CLh calculated from the CLint,mic (converted)): 8.87 mL/min/kg | microsomal CLint at 1 μM ([1]; dog, pH 7.4, dogs liver microsomes 0.5 mg/mL, 1 μM, read-out: CLint,mic): 62.6 ± 2.4 µL/min/mg | hepatic ER (extraction ratio) ([1]; dogs, from microsomal clearance, well-stirred model): 0.106 ± 0.004 | CLu,int,H ([1]; dogs, scaled up to the whole liver from microsomes): 108 ± 4 L/h | CLp ([2]; dogs, intravenous 10 mg/kg, 10 mg/kg): 11.1 ± 4.32 mL/min/kg | AUC(0-inf) ([2]; male, beagle, dog, plasma, iv, 10 mg/kg): 16600 ± 5900 ng·h/mL | clearance ([2]; male, beagle, dog, plasma, iv, 10 mg/kg, dogs, intravenous 10 mg/kg, read-out: CLp (converted)): 10.3 mL/min/kg | Vd ([2]; male, beagle, dog, plasma, dogs, intravenous 10 mg/kg, moment analysis, read-out: Vss): 1.15 ± 0.46 L/kg | half-life ([2]; male, beagle, dog, plasma, dogs, intravenous 10 mg/kg, read-out: t1/2 (converted)): 1.18 ± 0.14 h | bioavailability ([2]; male, beagle, dog, plasma, dogs, oral 20 mg/kg vs intravenous 10 mg/kg, read-out: F (bioavailability)): 95.5% | AUC(0-inf) [2, 3]: 31600 ± 5900 ng·h/mL | Cmax [2, 3]: 10500 ± 2000 ng/mL | Tmax [2, 3]: 0.777 ± 0.387 h | half-life ([2]; male, beagle, dog, plasma, dogs, oral 20 mg/kg, hard gelatin capsules, read-out: t1/2 (terminal phase half-life) (converted)): 1.81 ± 0.04 h
